Consider 59 compounds from US12611404B2, “Aza-aryl 1H-pyrazol-1-yl benzene sulfonamides” (ChemoCentryx, Inc., priority 2012, dated 2026).

The target of the experiment is T1, CCR(9) (Homo sapiens, UniProt P51686).
T1 construct: CCR(9)-expressing cells such as T cell line MOLT-4 cells; host or cells: MOLT-4 cells
T1 sequence (P51686 1-369): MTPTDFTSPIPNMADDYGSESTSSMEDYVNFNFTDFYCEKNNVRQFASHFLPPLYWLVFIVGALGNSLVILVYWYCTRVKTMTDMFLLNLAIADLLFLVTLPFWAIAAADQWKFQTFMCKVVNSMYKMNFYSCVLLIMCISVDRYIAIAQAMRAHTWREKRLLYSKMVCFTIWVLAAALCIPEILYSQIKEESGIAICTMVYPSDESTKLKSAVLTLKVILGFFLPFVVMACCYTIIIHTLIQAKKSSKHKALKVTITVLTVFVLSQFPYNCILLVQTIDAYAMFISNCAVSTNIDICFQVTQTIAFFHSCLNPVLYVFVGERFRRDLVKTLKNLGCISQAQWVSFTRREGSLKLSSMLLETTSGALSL
The experiment can be described thus: serum chemotaxis (migration) assay, MOLT-4 cells in human serum, TECK. The class given is cell-based. Conditions: read-out: A2. The method, then:
In vitro cell chemotaxis assays can be performed (but are not limited to this format) using the 96-well microchamber (called ChemoTX™). The ChemoTX™ system is well known to those skilled in the art as a type of chemotactic/cell migration instrument. In this assay, CCR(9)-expressing cells (such as MOLT-4) are first incubated with a compound of interest, such as a possible CCR(9) antagonist at increasing concentrations. Typically, fifty thousand cells per well are used, but the amount can range from 10^3-10^6 cells per well. The chemokine ligand (for example, CCR(9) ligand TECK, typically at 50 nM (but can range from 5-100 nM)), is placed at the lower chamber and the migration apparatus is assembled. Twenty microliters of test compound-treated cells are then placed onto the membrane. Migration is allowed to take place at 37° C. for a period of time, typically 2.5 hours for CCR(9). At the end of the incubation, the number of cells that migrated across the membrane into the lower chamber is then quantified. The efficacy of a compound as an inhibitor of chemokine-mediated cell migration can be calculated as an IC50 (the concentration needed to reduce cell migration by 50%) or IC90 (for 90% inhibition).
MOLT-4 cells were obtained from the American Type Culture Collection (Manassas, VA) and cultured in RPMI tissue culture medium supplemented with 10% fetal calf serum (FCS) in a humidified 5% CO2 incubator at 37° C. Recombinant human chemokine proteins TECK was obtained from R&D Systems (Minneapolis, MN). ChemoTX® chemotaxis microchambers were purchased from Neuro Probe (Gaithersburg, MD). CyQUANT® cell proliferation kits were purchased from Molecular Probes (Eugene, Oregon). Calcium indicator dye Fluo-4 AM was purchased from Molecular Devices (Mountain View, CA).
A serum chemotaxis assay was used to determine the efficacy of potential receptor antagonists at blocking the migration mediated through chemokine receptors, such as CCR(9). This assay was performed using the ChemoTX® microchamber system with a 5-μm pore-sized polycarbonate membrane. MOLT-4 cells were collected by centrifugation at 400×g at room temperature, then suspended at 50 million/ml in human serum, containing 50 mM HEPES (final pH of 7.2). The compound being tested or an equivalent volume of its solvent (DMSO) was then added to the cell/serum mixture at a final DMSO concentration of 0.125% (v/v), and this mixture was then incubated together at 37° C. for one hour. Separately, recombinant human TECK was diluted with chemotaxis buffer (HBSS+0.1% BSA), generally spanning a range from 0.1 nM to 500 nM, after which 29 μl of diluted chemokine was placed in the lower wells of the ChemoTX® plate. The 5-μm (pore size) polycarbonate membrane was placed onto the plate, and 20 μL of the cell/compound mixture was transferred onto each well of the membrane. The plates were incubated at 37° C. for 90 minutes, after which the polycarbonate membranes were removed and 5 μl of the DNA-intercalating agent CyQUANT (Invitrogen, Carlsbad, CA) was added to the lower wells. The amount of fluorescence, corresponding to the number of migrated cells, was measured using a Spectrafluor Plus plate reader (TECAN, San Jose, CA).
The A2 values were calculated from the following equation, comparing the efficacy of the test compound with that of the DMSO-only control at equi-active chemokine levels: Log(A2)=log[drug(M)]−log [(A′/A)−1]
where A reflects the potency of the agonist in the absence of antagonist and A′ reflects the potency of the agonist in the presence of antagonist at a given concentration of drug ([drug(M)]).
`CC(C)(C)c1ccc(S(=O)(=O)Nc2cc(C(F)(F)F)nn2-c2cccc3ncccc23)cc1`: the IC50 was 501 to 2500 nM.

As to `Cc1cc(NS(=O)(=O)c2ccc(OC(C)C)cc2)n(-c2cccc3ncccc23)n1`, the IC50 was in the range of 501 to 2500 nM.

As for `Cc1ccc2c(-n3nc(C)cc3NS(=O)(=O)c3ccc(C(C)(C)C)cc3)cccc2n1`, the IC50 was less than 500 nM.

`Cc1cc(NS(=O)(=O)c2ccc(OC(F)(F)F)cc2)n(-c2cccc3ncccc23)n1`: the IC50 was in the range of 501 to 2500 nM.

In the case of `Cc1cc(NS(=O)(=O)c2ccc(OCC(C)C)cc2)n(-c2cccc3ncccc23)n1`, the IC50 is greater than 2500 nM.

For the compound `Cc1cc(NS(=O)(=O)c2ccc(C(C)(C)C)cc2)n(-c2cccc3cnccc23)n1`, the IC50 was in the range of 501 to 2500 nM.

`Cc1cc(NS(=O)(=O)c2ccc(C(C)C)cc2)n(-c2cccc3ncccc23)n1`: the IC50 was in the range of 501 to 2500 nM.

As to `CCC(C)(C)c1ccc(S(=O)(=O)Nc2cc(C)nn2-c2cccc3ncccc23)cc1`, the IC50 was 501 to 2500 nM.

On to `CC(C)c1ccc(S(=O)(=O)Nc2cc(C(F)F)nn2-c2cccc3ncccc23)cc1`, for which the IC50 was in the range of 501 to 2500 nM.

For the compound `CC(C)(C)c1ccc(S(=O)(=O)Nc2cc(CF)nn2-c2cccc3ncccc23)cc1`, the IC50 is less than 500 nM.

On to `CC(C)Oc1ccc(S(=O)(=O)Nc2cc(CF)nn2-c2cccc3ncccc23)cc1`, for which the IC50 lay within 501 to 2500 nM.

For `COc1ccc(-n2nc(C)cc2NS(=O)(=O)c2ccc(C(C)(C)C)c(F)c2)c2cccnc12`, the IC50 was less than 500 nM.

As to `CC(C)(C)c1ccc(S(=O)(=O)Nc2cc(C#N)nn2-c2cccc3ncccc23)cc1`, the IC50 is 501 to 2500 nM.

Turning to `CC(C)(C)c1ccc(S(=O)(=O)Nc2ccnn2-c2cccc3ncccc23)cc1`, the IC50 was greater than 2500 nM.

Turning to `Cc1cc(NS(=O)(=O)c2ccc(C(C)(C)C)cc2)n(-c2nccc3ccccc23)n1`, the IC50 fell in the range of 501 to 2500 nM.

For `Cc1cc(NS(=O)(=O)c2ccc(OC(C)C)cc2)n(-c2cccc3cnccc23)n1`, the IC50 lay within 501 to 2500 nM.

As to `CC(C)c1ccc(S(=O)(=O)Nc2cc(C(F)(F)F)nn2-c2cccc3cnccc23)cc1`, the IC50 lay within 501 to 2500 nM.

Take `CC(C)Oc1ccc(S(=O)(=O)Nc2cc(C(F)(F)F)nn2-c2cccc3cnccc23)cc1`: the IC50 lay in the range of 501 to 2500 nM.

In the case of `COCc1cc(NS(=O)(=O)c2ccc(C(C)(C)C)cc2)n(-c2cccc3ncccc23)n1`, the IC50 is less than 500 nM.

`Cc1cc(NS(=O)(=O)c2ccc(C(C)(C)C)cc2F)n(-c2cccc3ncccc23)n1`: the IC50 lay within 501 to 2500 nM.

For the compound `CC(C)(C)c1ccc(S(=O)(=O)Nc2cc(C(F)F)nn2-c2cccc3ncccc23)cc1`, the IC50 is less than 500 nM.

With `CC(C)Oc1ccc(S(=O)(=O)Nc2cc(C(F)F)nn2-c2cccc3ncccc23)cc1`, the IC50 was less than 500 nM.

Take `Cc1cc(NS(=O)(=O)c2ccc(C(C)(C)C)cc2)n(-c2ccc(Cl)c3ncccc23)n1`: the IC50 was less than 500 nM.

For `Cc1cc(NS(=O)(=O)c2ccc(C(C)(C)C)cc2)n(-c2cccc3c(N)nccc23)n1`, the IC50 was 501 to 2500 nM.

Turning to `Cc1cc(NS(=O)(=O)c2ccc(C(C)(C)C)cc2)n(-c2cccc3nc(N)ccc23)n1`, the IC50 is less than 500 nM.

Turning to `Cc1cc(NS(=O)(=O)c2ccc(C(C)(C)C)cc2)n(-c2ccnc3ccccc23)n1`, the IC50 was in the range of 501 to 2500 nM.

Regarding `Cc1cc(NS(=O)(=O)c2ccc(C(C)(C)C)cc2)n(-c2cncc3ccccc23)n1`, the IC50 lay in the range of 501 to 2500 nM.

With `Cc1cc(NS(=O)(=O)c2ccc(C(C)(C)C)cc2)n(-c2nccc3ncccc23)n1`, the IC50 was 501 to 2500 nM.

For `Cc1cc(NS(=O)(=O)c2ccc(C(C)(C)C)cc2)n(-c2nncc3ccccc23)n1`, the IC50 lay within 501 to 2500 nM.

Turning to `Cc1cc(NS(=O)(=O)c2ccc(C(C)C)cc2)n(-c2cccc3cnccc23)n1`, the IC50 lay within 501 to 2500 nM.

As for `CC(C)c1ccc(S(=O)(=O)Nc2cc(C(F)(F)F)nn2-c2cccc3ncccc23)cc1`, the IC50 is 501 to 2500 nM.

On to `CC(C)Oc1ccc(S(=O)(=O)Nc2cc(C(F)(F)F)nn2-c2cccc3ncccc23)cc1`, for which the IC50 was greater than 2500 nM.

Consider `Cc1cc(NS(=O)(=O)c2ccc(C(C)(C)C)cc2)n(-c2n[nH]c(=O)c3ccccc23)n1`, for which the IC50 is 501 to 2500 nM.

`Cc1cc(NS(=O)(=O)c2ccc(C(C)(C)C)cc2)n(-c2cc(N)nc3ccccc23)n1`: the IC50 was in the range of 501 to 2500 nM.

As for `Cc1cc(NS(=O)(=O)c2ccc(C(C)(C)C)cc2)n(-c2cnnc3ccccc23)n1`, the IC50 was in the range of 501 to 2500 nM.

As for `Cc1cc(NS(=O)(=O)c2ccc(C(C)(C)C)cc2)n(-c2ccnc3c(F)cccc23)n1`, the IC50 fell in the range of 501 to 2500 nM.

With `Cc1cc(NS(=O)(=O)c2ccc(C(C)(C)C)cc2)n(-c2ccc(C)c3ncccc23)n1`, the IC50 fell in the range of 501 to 2500 nM.

With `COc1cnc(-n2nc(C)cc2NS(=O)(=O)c2ccc(C(C)(C)C)cc2)c2ccccc12`, the IC50 was 501 to 2500 nM.

As to `Cc1cc(NS(=O)(=O)c2ccc(C(C)(C)C)cc2)n(-c2cnc(N)c3ccccc23)n1`, the IC50 was 501 to 2500 nM.

On to `Cc1cc(NS(=O)(=O)c2ccc(C(C)(C)C)c(F)c2)n(-c2cccc3ncccc23)n1`, for which the IC50 is less than 500 nM.

On to `Cc1cc(NS(=O)(=O)c2ccc(C(C)(C)C)cc2)n(-c2ncc(Cl)c3ccccc23)n1`, for which the IC50 is greater than 2500 nM.

As for `Cc1cc(-n2nc(C)cc2NS(=O)(=O)c2ccc(C(C)(C)C)cc2)c2ccccc2n1`, the IC50 was 501 to 2500 nM.

In the case of `Cc1cc(NS(=O)(=O)c2ccc(C(C)(C)C)cc2)n(-c2ccnc3cc(F)ccc23)n1`, the IC50 was in the range of 501 to 2500 nM.

On to `CC(C)(C)c1ccc(S(=O)(=O)Nc2cc(CF)nn2-c2cccc3ncccc23)cc1F`, for which the IC50 was less than 500 nM.

`Cc1cc(NS(=O)(=O)c2ccc(C(C)(C)C)cc2)n(-c2ccc(F)c3ncccc23)n1`: the IC50 lay in the range of 501 to 2500 nM.

`Cc1cc(NS(=O)(=O)c2ccc(C(C)(C)C)cc2)n(-c2cccc3c2ccc[n+]3[O-])n1`: the IC50 was 501 to 2500 nM.

In the case of `Cc1cc(NS(=O)(=O)c2ccc(C(C)(C)C)cc2)n(-c2cccc3c[n+]([O-])ccc23)n1`, the IC50 is greater than 2500 nM.

For the compound `CCOc1ccc(-n2nc(C)cc2NS(=O)(=O)c2ccc(C(C)(C)C)cc2)c2cccnc12`, the IC50 fell in the range of 501 to 2500 nM.

On to `COc1ccc(-n2nc(C)cc2NS(=O)(=O)c2ccc(C(C)(C)C)cc2)c2cccnc12`, for which the IC50 is less than 500 nM.

As for `Cc1cc(NS(=O)(=O)c2ccc(C(C)(C)C)c(Cl)c2)n(-c2cccc3ncccc23)n1`, the IC50 lay in the range of 501 to 2500 nM.

`Cc1cc(NS(=O)(=O)c2ccc(C(C)(C)C)cc2)n(-c2cccc3ncccc23)n1`: the IC50 was less than 500 nM.

In the case of `Cc1cc(NS(=O)(=O)c2cc(F)c(C(C)(C)C)c(F)c2)n(-c2cccc3ncccc23)n1`, the IC50 is less than 500 nM.

`Cc1cc(-n2nc(C)cc2NS(=O)(=O)c2ccc(C(C)(C)C)cc2)c2cccnc2c1`: the IC50 is 501 to 2500 nM.

Turning to `Cc1cc(NS(=O)(=O)c2ccc(C(C)(C)C)cc2)n(-c2ccc(Br)c3ncccc23)n1`, the IC50 was 501 to 2500 nM.

`Cc1cc(NS(=O)(=O)c2ccc(C(C)(C)C)c(F)c2)n(-c2ccc(Br)c3ncccc23)n1`: the IC50 was less than 500 nM.

`Cc1cc(NS(=O)(=O)c2ccc(C(C)(C)C)c(F)c2)n(-c2ccc(C#N)c3ncccc23)n1`: the IC50 was less than 500 nM.

On to `Cc1cc(NS(=O)(=O)c2ccc(OC(C)C)c(F)c2)n(-c2cccc3ncccc23)n1`, for which the IC50 lay within 501 to 2500 nM.

As for `Cc1cc(NS(=O)(=O)c2ccc(C(C)(C)C)cc2)n(-c2ccc(N)c3ncccc23)n1`, the IC50 was less than 500 nM.

Turning to `Cc1cc(NS(=O)(=O)c2ccc(C(C)(C)C)cc2)n(-c2ccc(C#N)c3ncccc23)n1`, the IC50 fell in the range of 501 to 2500 nM.
